Measurements as given in patent US4492693A, “Benzothienylglycyl cephalosporin derivatives” (priority 1983, dated 1985).
Values after ≈ are worked out from the molar mass of the structure shown. Like-named read-outs stand apart in the source and are kept apart here.

How the values were obtained:
Bacteroides corrodens = assay: Susceptibility of Anaerobic Bacteroides Isolates by the Agar-Dilution Method (Table III); assay type: cell-based; details: Eikenella corrodens; strain 1874; readings 24 hrs. after incubation
Description: (§1) A typical and preferred compound provided by this invention is 7-(3-benzothienyl)glycylamido-3-methyl-3-cephem-4-carboxylic acid, the compound illustrated in Example 9. The antibacterial activity of this compound has been determined in standard in vitro agar dilution assays against a variety of gram positive and gram negative microorganism. The following Tables present typical minimum inhibitory concentrations (MIC's) in μg/ml for several compounds of the invention when evaluated against the indicated microorganisms. MIC's for several known compounds are also presented for comparison.
(§2) Susceptibility of Anaerobic Bacteroides Isolates by the
(§3) Agar-Dilution Method MIC (μg/ml) readings 24 hrs. after incubation

Bacteroides fragilis [1] = assay: as above; assay type: cell-based; details: 24 h
Description: as §1, §2, §3

[2] = test system: Bacteroides thetaiotaomicron; assay: as above; assay type: cell-based; details: 24 h
Description: as §1, §2, §3

H. influenzae = assay: Expanded Spectrum MIC (Table II); assay type: cell-based; details: Haemophilus influenzae
Description: as §1
(§4) Expanded Spectrum MIC (μg/ml)

Staph. aureus = assay: Expanded Spectrum MIC (Table II); assay type: cell-based; details: Staphylococcus aureus
Description: as §1, §4

[3] = test system: β-lactamase, organism 1313G; assay: Stability to β-lactamase (Table V); assay type: biochemical; details: lower numbers mean greater stability
Strep. D = assay: Agar Dilution MIC (Table I); assay type: cell-based; details: read-out: Agar Dilution MIC
How it was run: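 Std in vitro agar dilution; read-out = MIC, μg/ml.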

[4] = test system: β-lactamase, organism TEM; assay type: biochemical; details: lower numbers mean greater stability
Bacteroides fragilis [5] = assay: Expanded anaerobic Spectrum MIC (Table IV); assay type: cell-based
[6] = test system: β-lactamase, organism 265A; assay: Stability to β-lactamase (Table V); assay type: biochemical; details: lower numbers mean greater stability
Strep. A = assay: Agar Dilution MIC (Table I); assay type: cell-based; details: read-out: Agar Dilution MIC
[7] = test system: β-lactamase, organism 1082E; assay: Stability to β-lactamase (Table V); assay type: biochemical; details: lower numbers mean greater stability
bacteria = assay: Antibacterial activity (general statements); assay type: cell-based; details: anaerobic bacteria and Haemophilus influenzae, more strains
Haemophilus influenzae = assay: Expanded H. influenzae Spectrum MIC (Table IV); assay type: cell-based
[8] = test system: β-lactamase, organism PS185; assay: Stability to β-lactamase (Table V); assay type: biochemical; details: lower numbers mean greater stability
H. influ. = assay: Agar Dilution MIC (Table I); assay type: cell-based; details: read-out: Agar Dilution MIC
E. coli = assay: Agar Dilution MIC (Table I); assay type: cell-based; details: Escherichia coli
Klebsiella = assay: Agar Dilution MIC (Table I); assay type: cell-based; details: Klebsiella, read-out: Agar Dilution MIC
Strep. PN = assay: Agar Dilution MIC (Table I); assay type: cell-based; details: strain PARK
[9] = mean over strains, read-out: MIC mean

Q: Which results are given for CC1=C(C(=O)O)N2C(=O)C(NC(=O)C(N)c3csc4ccccc34)C2SC1 (stereo not drawn) [Ex. 9, 7-(3-Benzothienyl)glycylamido-3-methyl-3-cephem-4-carboxylic acid]?
A: MIC (Bacteroides corrodens): 32 µg/mL (≈ 79.3 µM); MIC (Bacteroides fragilis [1]; strain 9, readings 24 hrs. after incubation): 4 µg/mL (≈ 9.91 µM); MIC (Bacteroides fragilis [1]; strain 103, readings 24 hrs. after incubation): 32 µg/mL (≈ 79.3 µM); MIC (Bacteroides fragilis [1]; strain 104, readings 24 hrs. after incubation): 4 µg/mL (≈ 9.91 µM); MIC (Bacteroides fragilis [1]; strain 106, readings 24 hrs. after incubation): 4 µg/mL (≈ 9.91 µM); MIC (Bacteroides fragilis [1]; strain 107, readings 24 hrs. after incubation): 8 µg/mL (≈ 19.8 µM); MIC (Bacteroides fragilis [1]; strain 108, readings 24 hrs. after incubation): 4 µg/mL (≈ 9.91 µM); MIC (Bacteroides fragilis [1]; strain 110, readings 24 hrs. after incubation): 8 µg/mL (≈ 19.8 µM); MIC (Bacteroides fragilis [1]; strain 111, readings 24 hrs. after incubation): 64 µg/mL (≈ 159 µM); MIC (Bacteroides fragilis [1]; strain 1877, readings 24 hrs. after incubation): 8 µg/mL (≈ 19.8 µM); MIC ([2]; strain 1438, readings 24 hrs. after incubation): 4 µg/mL (≈ 9.91 µM); MIC ([2]; strain 1900A, readings 24 hrs. after incubation): 16 µg/mL (≈ 39.7 µM); MIC (H. influenzae; strain 76): 1 µg/mL (≈ 2.48 µM); MIC (H. influenzae; strain 105): 1 µg/mL (≈ 2.48 µM); MIC (H. influenzae; strain 158): 1 µg/mL (≈ 2.48 µM); MIC (H. influenzae; strain 164): 1 µg/mL (≈ 2.48 µM); MIC (H. influenzae; strain 169): 1 µg/mL (≈ 2.48 µM); MIC (H. influenzae; strain 171): 1 µg/mL (≈ 2.48 µM); MIC (H. influenzae; strain 312): 1 µg/mL (≈ 2.48 µM); MIC (H. influenzae; strain 1683): 0.5 µg/mL (≈ 1.24 µM); MIC (H. influenzae; strain 1930): 1 µg/mL (≈ 2.48 µM); MIC (H. influenzae; strain 4842): 1 µg/mL (≈ 2.48 µM); MIC (H. influenzae; strain C.L.): 2 µg/mL (≈ 4.96 µM); MIC (H. influenzae; strain HESS): 1 µg/mL (≈ 2.48 µM); MIC (H. influenzae; strain M366): 64 µg/mL (≈ 159 µM); MIC (H. influenzae; strain M370): 1 µg/mL (≈ 2.48 µM); MIC (H. influenzae; strain M371): 1 µg/mL (≈ 2.48 µM); MIC (H. influenzae; strain R465): 64 µg/mL (≈ 159 µM); MIC (H. influenzae; strain STEL): 64 µg/mL (≈ 159 µM); MIC (Staph. aureus; strain S224): 1 µg/mL (≈ 2.48 µM); MIC (Staph. aureus; strain S225): 1 µg/mL (≈ 2.48 µM); MIC (Staph. aureus; strain S226): 2 µg/mL (≈ 4.96 µM); MIC (Staph. aureus; strain S227): 1 µg/mL (≈ 2.48 µM); MIC (Staph. aureus; strain S228): 1 µg/mL (≈ 2.48 µM); MIC (Staph. aureus; strain S229): 2 µg/mL (≈ 4.96 µM); MIC (Staph. aureus; strain S230): 1 µg/mL (≈ 2.48 µM); MIC (Staph. aureus; strain S231): 1 µg/mL (≈ 2.48 µM); MIC (Staph. aureus; strain S234): 2 µg/mL (≈ 4.96 µM); MIC (Staph. aureus; strain S237): 1 µg/mL (≈ 2.48 µM); MIC (Staph. aureus; strain S238): 2 µg/mL (≈ 4.96 µM); MIC (Staph. aureus; strain S239): 2 µg/mL (≈ 4.96 µM); Stability to β-lactamase [3]: 210; MIC (Strep. D; strain 2041): 64 µg/mL (≈ 159 µM); MIC (Strep. D; strain X66): 128 µg/mL (≈ 317 µM); Stability to β-lactamase [4]: 3; MIC (Bacteroides fragilis [5]; geometric mean over strains, read-out: MIC Geometric mean): 0.7 µg/mL (≈ 1.73 µM); MIC (Bacteroides fragilis [5]; [9]): 1.2 µg/mL (≈ 2.97 µM); MIC (Bacteroides fragilis [5]; strain 180-821, read-out: MIC): 0.5 µg/mL (≈ 1.24 µM); MIC (Bacteroides fragilis [5]; strain 10668, read-out: MIC): 0.5 µg/mL (≈ 1.24 µM); MIC (Bacteroides fragilis [5]; strain 10683, read-out: MIC): 0.5 µg/mL (≈ 1.24 µM); MIC (Bacteroides fragilis [5]; strain 10695, read-out: MIC): 0.5 µg/mL (≈ 1.24 µM); MIC (Bacteroides fragilis [5]; strain 10732, read-out: MIC): 0.5 µg/mL (≈ 1.24 µM); MIC (Bacteroides fragilis [5]; strain 10750, read-out: MIC): 8 µg/mL (≈ 19.8 µM); MIC (Bacteroides fragilis [5]; strain 10774, read-out: MIC): 1 µg/mL (≈ 2.48 µM); MIC (Bacteroides fragilis [5]; strain 10817, read-out: MIC): 0.5 µg/mL (≈ 1.24 µM); MIC (Bacteroides fragilis [5]; strain 10837, read-out: MIC): 0.5 µg/mL (≈ 1.24 µM); MIC (Bacteroides fragilis [5]; strain 107266, read-out: MIC): 0.5 µg/mL (≈ 1.24 µM); MIC (Bacteroides fragilis [5]; strain 107268, read-out: MIC): 2 µg/mL (≈ 4.96 µM); MIC (Bacteroides fragilis [5]; strain 108133, read-out: MIC): 0.5 µg/mL (≈ 1.24 µM); Stability to β-lactamase [6]: 14; MIC (Strep. A): 0.125 µg/mL (≈ 0.31 µM); Stability to β-lactamase [7]: 25; potency compared to known antibiotics (bacteria): much more potent than those with which it was compared; MIC (Haemophilus influenzae; geometric mean over strains, read-out: MIC Geometric Mean): 1.1 µg/mL (≈ 2.73 µM); MIC (Haemophilus influenzae; [9]): 2.1 µg/mL (≈ 5.2 µM); MIC (Haemophilus influenzae; strain 101, read-out: MIC): 1 µg/mL (≈ 2.48 µM); MIC (Haemophilus influenzae; strain 102): 16 µg/mL (≈ 39.7 µM); MIC (Haemophilus influenzae; strain 103, read-out: MIC): 0.5 µg/mL (≈ 1.24 µM); MIC (Haemophilus influenzae; strain 105, read-out: MIC): 0.5 µg/mL (≈ 1.24 µM); MIC (Haemophilus influenzae; strain 107, read-out: MIC): 1 µg/mL (≈ 2.48 µM); MIC (Haemophilus influenzae; strain 108, read-out: MIC): 2 µg/mL (≈ 4.96 µM); MIC (Haemophilus influenzae; strain 109, read-out: MIC): 1 µg/mL (≈ 2.48 µM); MIC (Haemophilus influenzae; strain 110, read-out: MIC): 0.5 µg/mL (≈ 1.24 µM); MIC (Haemophilus influenzae; strain 111, read-out: MIC): 0.5 µg/mL (≈ 1.24 µM); MIC (Haemophilus influenzae; strain 112, read-out: MIC): 2 µg/mL (≈ 4.96 µM); MIC (Haemophilus influenzae; strain 113, read-out: MIC): 0.5 µg/mL (≈ 1.24 µM); MIC (Haemophilus influenzae; strain 114, read-out: MIC): 2 µg/mL (≈ 4.96 µM); Stability to β-lactamase [8]: 25; MIC (H. influ.; strain 76): 0.5 µg/mL (≈ 1.24 µM); MIC (H. influ.; strain C.L.): 2 µg/mL (≈ 4.96 µM); MIC (E. coli; strain EC14): 32 µg/mL (≈ 79.3 µM); MIC (E. coli; strain N10): 128 µg/mL (≈ 317 µM); MIC (E. coli; strain TEM): 32 µg/mL (≈ 79.3 µM); MIC (Klebsiella; strain KAE): 128 µg/mL (≈ 317 µM); MIC (Klebsiella; strain X26): 2 µg/mL (≈ 4.96 µM); MIC (Klebsiella; strain X68): 128 µg/mL (≈ 317 µM); MIC (Strep. PN): 0.5 µg/mL (≈ 1.24 µM)
